Measured values taken from article PMC5333395, “Assessing histone demethylase inhibitors in cells: lessons learned” (Epigenetics & Chromatin, 2017).

What was measured:
KDM5A [1] = target: T1, KDM5A (Homo sapiens, UniProt P29375); experiment: AlphaScreen in vitro demethylase assay; format: biochemical; details: IC50 ± SD (number of replicates)
Procedure: IC50 values were determined as previously described. The following amendments were made to the protocol for carrying out 2-OG competition assays.

KDM5A [2] = target: T1, KDM5A; experiment: High-content immunofluorescence (IF) assay, overexpressed full-length FLAG-tagged KDM in HeLa cells; format: cell-based; details: HeLa cells overexpressing WT KDM5A, H3K4me3 mark, 24 h; for EC50: read-out: KDM5A, in cells, EC50 by IF assay (head: IC50)
Procedure: On day 0, 7000 cells per well were plated on a 96-well clear bottom CellCarrier plate (PerkinElmer, UK). The next day the cells were transfected with Lipofectamine 3000 (ThermoFisher Scientific, UK) following the manufacturer’s instructions. Briefly, 0.1 µg of plasmid DNA (encoding for the respective demethylase) and 0.15 µL of Lipofectamine 3000 were diluted in separate tubes containing 5 µL OptiMEM. 0.15 µL of P3000 was added to the tube with the DNA. The two solutions were then mixed gently and allowed to incubate for 5 min at room temperature. Next, the DNA-lipid complex was added to the cells for 4 h at 37 °C and 5% CO2. Compound dilutions were made in a 96-well PCR plate (Starlab, UK). The culture medium was supplemented with 0.4% DMSO so that the solvent concentration was maintained throughout. Compounds were serially diluted at a 1:2 or 1:3 dilution ratio. Next, the cell culture plate was removed from the incubator and the medium was gently aspirated and replaced with the fresh medium containing diluted compounds.

HeLa cells = experiment: Cell number in the high-content screen (DAPI staining) as measure of toxicity; details: concentrations used in the IF assays
Source text: Immunofluorescence images of 20 fields (if not indicated otherwise) were captured through a 20× objective on a PerkinElmer Operetta or the GE IN Cell 6000 using the appropriate filters and light sources for exciting DAPI, Alexafluor 488, and Alexafluor 568 or Alexafluor 647. […] From the DAPI channel, a binary mask was created to exclude individual nuclei smaller than 100 µm^2 and those overlapping the edge of the field.

KDM5D = target: T2, KDM5D (Homo sapiens, UniProt Q9BY66); experiment: High-content immunofluorescence (IF) assay, overexpressed full-length FLAG-tagged KDM in HeLa cells; format: cell-based; details: HeLa cells overexpressing WT KDM5D, H3K4me3 mark, 24 h; for EC50: read-out: KDM5D, in cells, EC50 by IF assay (head: IC50)
T2 sequence (Q9BY66 458-749 limits assumed): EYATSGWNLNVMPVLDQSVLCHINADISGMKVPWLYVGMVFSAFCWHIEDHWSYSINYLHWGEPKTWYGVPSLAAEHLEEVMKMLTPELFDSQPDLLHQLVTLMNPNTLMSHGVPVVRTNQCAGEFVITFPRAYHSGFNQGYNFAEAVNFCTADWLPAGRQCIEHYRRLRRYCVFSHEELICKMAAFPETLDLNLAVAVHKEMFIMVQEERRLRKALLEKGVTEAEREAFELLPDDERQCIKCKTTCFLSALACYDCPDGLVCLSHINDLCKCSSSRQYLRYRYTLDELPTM
Procedure: (§1) HeLa cells (ATCC) were cultured at 37 °C and 5% CO2 in Minimal Essential Media—Eagle (Sigma-Aldrich, UK) supplemented with 10% heat-inactivated foetal calf serum (FCS) (Gibco, UK), and 1% L-glutaMAX (Gibco, UK) in T75 flasks (Sarstedt, UK) and passaged regularly with TrypLE (Life Technologies, UK) before cells reached confluence. On day 0, 7000 cells per well were plated on a 96-well clear bottom CellCarrier plate (PerkinElmer, UK). The next day the cells were transfected with Lipofectamine 3000 (ThermoFisher Scientific, UK) following the manufacturer’s instructions. Briefly, 0.1 µg of plasmid DNA (encoding for the respective demethylase) and 0.15 µL of Lipofectamine 3000 were diluted in separate tubes containing 5 µL OptiMEM. 0.15 µL of P3000 was added to the tube with the DNA. The two solutions were then mixed gently and allowed to incubate for 5 min at room temperature. Next, the DNA-lipid complex was added to the cells for 4 h at 37 °C and 5% CO2.
(§2) Compound dilutions were made in a 96-well PCR plate (Starlab, UK). The culture medium was supplemented with 0.4% DMSO so that the solvent concentration was maintained throughout. Compounds were serially diluted at a 1:2 or 1:3 dilution ratio. Next, the cell culture plate was removed from the incubator and the medium was gently aspirated and replaced with the fresh medium containing diluted compounds.
(§3) Then cells were rinsed once with PBS and blocked for 30 min at room temperature using 3% v/v foetal calf serum diluted in PBS.

KDM4A = target: T3, KDM4A (Homo sapiens, UniProt O75164); experiment: as above; format: cell-based; details: HeLa cells overexpressing WT KDM4A, H3K9me3 mark, 24 h; read-out: KDM4A, in cells, EC50 by IF assay (head: IC50)
T3 construct: transiently transfecting the full-length FLAG-tagged demethylase (WT) into cells; expressed in transfected cells; host or cells: HeLa
T3 sequence (O75164 1-1064 A482E): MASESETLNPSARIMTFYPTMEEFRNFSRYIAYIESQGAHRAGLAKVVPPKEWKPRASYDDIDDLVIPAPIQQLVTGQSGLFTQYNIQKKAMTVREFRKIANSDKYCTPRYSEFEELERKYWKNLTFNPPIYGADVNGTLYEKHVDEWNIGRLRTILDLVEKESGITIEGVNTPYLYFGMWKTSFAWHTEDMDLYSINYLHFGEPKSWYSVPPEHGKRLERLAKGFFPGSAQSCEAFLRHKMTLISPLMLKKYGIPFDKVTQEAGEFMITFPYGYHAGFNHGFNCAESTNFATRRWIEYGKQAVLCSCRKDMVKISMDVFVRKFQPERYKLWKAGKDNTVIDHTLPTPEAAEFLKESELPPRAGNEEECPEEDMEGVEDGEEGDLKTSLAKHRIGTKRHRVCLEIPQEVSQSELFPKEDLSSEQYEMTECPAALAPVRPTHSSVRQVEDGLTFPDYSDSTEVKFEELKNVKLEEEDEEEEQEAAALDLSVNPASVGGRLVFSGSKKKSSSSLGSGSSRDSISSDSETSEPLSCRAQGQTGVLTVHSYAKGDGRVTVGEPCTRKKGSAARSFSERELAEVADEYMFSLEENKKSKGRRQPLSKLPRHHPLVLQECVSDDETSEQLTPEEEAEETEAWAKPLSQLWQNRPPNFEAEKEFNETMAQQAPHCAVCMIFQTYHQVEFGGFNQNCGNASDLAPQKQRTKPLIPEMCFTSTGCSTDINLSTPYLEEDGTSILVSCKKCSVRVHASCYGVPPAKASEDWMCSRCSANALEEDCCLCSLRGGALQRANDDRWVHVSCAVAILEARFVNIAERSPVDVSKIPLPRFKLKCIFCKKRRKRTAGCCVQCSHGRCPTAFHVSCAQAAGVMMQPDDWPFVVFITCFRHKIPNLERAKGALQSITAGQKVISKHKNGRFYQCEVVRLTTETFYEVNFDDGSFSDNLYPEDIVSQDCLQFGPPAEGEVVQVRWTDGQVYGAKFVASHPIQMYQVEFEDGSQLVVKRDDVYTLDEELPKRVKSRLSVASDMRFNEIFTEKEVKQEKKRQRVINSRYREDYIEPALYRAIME
Procedure: as §1, §2, §3

[3] = system: Caco-2 human colon carcinoma cell line; experiment: Caco-2 permeability; format: in vitro ADME; details: P app
Procedure: P app (apparent permeability) was determined in the Caco-2 human colon carcinoma cell line essentially as described in [11].

T1 sequence (P29375 whole entry): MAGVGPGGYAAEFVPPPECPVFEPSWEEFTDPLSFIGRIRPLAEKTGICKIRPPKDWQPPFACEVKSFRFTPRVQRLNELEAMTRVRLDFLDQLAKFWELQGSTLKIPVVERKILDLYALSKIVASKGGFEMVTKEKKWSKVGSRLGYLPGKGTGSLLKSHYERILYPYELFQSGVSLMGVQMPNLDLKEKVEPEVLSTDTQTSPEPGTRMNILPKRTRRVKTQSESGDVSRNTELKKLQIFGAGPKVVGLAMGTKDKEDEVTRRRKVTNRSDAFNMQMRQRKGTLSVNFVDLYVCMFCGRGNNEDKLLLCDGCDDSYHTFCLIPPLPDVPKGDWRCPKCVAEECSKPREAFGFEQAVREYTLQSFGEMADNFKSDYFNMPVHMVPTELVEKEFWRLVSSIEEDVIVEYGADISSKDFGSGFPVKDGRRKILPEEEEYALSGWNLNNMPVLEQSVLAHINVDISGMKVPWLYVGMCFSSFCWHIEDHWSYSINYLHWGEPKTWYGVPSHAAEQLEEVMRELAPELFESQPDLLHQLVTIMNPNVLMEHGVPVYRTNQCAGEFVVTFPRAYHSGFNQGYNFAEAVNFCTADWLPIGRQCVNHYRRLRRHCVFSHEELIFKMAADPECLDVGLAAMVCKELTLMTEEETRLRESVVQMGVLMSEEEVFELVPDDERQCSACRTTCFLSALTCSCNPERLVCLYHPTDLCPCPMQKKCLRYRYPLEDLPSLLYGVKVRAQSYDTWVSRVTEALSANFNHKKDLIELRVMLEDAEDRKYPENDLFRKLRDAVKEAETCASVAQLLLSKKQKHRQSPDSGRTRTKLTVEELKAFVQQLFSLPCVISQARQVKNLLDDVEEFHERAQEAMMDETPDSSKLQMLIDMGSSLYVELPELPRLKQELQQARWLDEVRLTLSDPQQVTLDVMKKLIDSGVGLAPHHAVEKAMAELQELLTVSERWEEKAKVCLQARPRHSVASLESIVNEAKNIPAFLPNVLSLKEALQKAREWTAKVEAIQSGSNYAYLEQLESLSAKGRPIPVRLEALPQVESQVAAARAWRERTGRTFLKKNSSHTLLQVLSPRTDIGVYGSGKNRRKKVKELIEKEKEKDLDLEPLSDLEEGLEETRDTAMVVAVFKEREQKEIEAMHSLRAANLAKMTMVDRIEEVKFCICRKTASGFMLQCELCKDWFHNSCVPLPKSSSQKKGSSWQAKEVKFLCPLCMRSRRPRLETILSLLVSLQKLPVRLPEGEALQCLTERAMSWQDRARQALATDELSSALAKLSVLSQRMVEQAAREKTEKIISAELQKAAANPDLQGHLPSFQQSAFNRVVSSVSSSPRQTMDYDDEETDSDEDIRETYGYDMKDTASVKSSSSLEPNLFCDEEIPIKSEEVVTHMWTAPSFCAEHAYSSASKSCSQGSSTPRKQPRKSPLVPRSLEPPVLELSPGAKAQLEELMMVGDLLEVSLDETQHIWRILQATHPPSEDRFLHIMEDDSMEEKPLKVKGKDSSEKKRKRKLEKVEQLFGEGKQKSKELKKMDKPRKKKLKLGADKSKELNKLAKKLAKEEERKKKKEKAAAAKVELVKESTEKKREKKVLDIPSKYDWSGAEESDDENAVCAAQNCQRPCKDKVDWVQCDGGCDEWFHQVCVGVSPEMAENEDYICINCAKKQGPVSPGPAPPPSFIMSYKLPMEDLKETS

Row | Compound | IC50 (KDM5A [1]) [µM] | KDM5A, in cells, EC50 by IF assay (head: IC50) (KDM5A [2]) | Toxicity as measured by cell count (number of cells, DAPI staining) (HeLa cells) | KDM5D, in cells, EC50 by IF assay (head: IC50) (KDM5D) | EC50 (KDM5A [2]) [µM] | EC50 (KDM4A) [µM] | EC50 (KDM5D) [µM] | Caco-2 (A to B flux) [3] [cm/s]
1 | CCN(CCN(C)C)C(=O)CNCc1cc(C(=O)O)ccn1 [KDOAM-20] | 0.01 ± 0.003 | little inhibition | no toxicity | little inhibition |  |  |  | 
2 | Clc1ccc(N/N=C(\c2ccccc2)c2ccccn2)nc1 [JIB-04 E] |  |  | only observed cell toxicity at high concentrations |  |  |  |  | 
3 | CCN(CCN(C)C)C(=O)CNCc1cncc(C(N)=O)c1 [KDOAM-32] |  |  |  |  | > 100 | > 100 | > 100 | 
4 | CPI-455 |  |  | No reduction in cell numbers was observed |  |  |  |  | 5.21e-06
5 | CCOC(=O)c1ccnc(CNCC(=O)N(CC)CCN(C)C)c1 [KDOAM-21] | 0.068 ± 0.01 |  | no toxicity |  | 4.8 | 70 | 4 | 5.32e-06
6 | O=c1[nH]cnc2c(-n3cc(CCN4CCC(c5cccc(Cl)c5)CC4)cn3)cccc12 [CCT366293, 8-(4-(2-(4-(3-Chlorophenyl)piperidin-1-yl)ethyl)-1H-pyrazol-1-yl)quinazolin-4(3H)-one] |  |  | No cytotoxicity was observed |  |  | > 100 |  | 
